The values that follow come from publication PMC8409151, “GT198 Is a Target of Oncology Drugs and Anticancer Herbs” (Frontiers in Oral Health, 2021).

By IC50 is commonly meant the concentration at which inhibition is half-maximal.

Where “and” joins values, the source holds several entries; their conditions need not be identical. Equal values may be shown once. Read-outs that look alike come from different tables or passages of the source. *1 amine or outer side, *2 acyl side, *3 side chain or, on linkers, in order; H or OH if unused. Where a SMILES comes first, the peptide text is derived from it. Bridges are numbered along the chain shown (N, C = ends). Roman numbers before positions name the chains, in order. [ ]: non-standard residue; d: D form. Actinocin(9to1) = Cc1c2oc3c(C)ccc(C(=O)[*:1])c3nc-2c(C(=O)[*:2])c(N)c1=O; NMeV = CN[C@H](C(=O)O)C(C)C; Sar = CNCC(=O)O Bounds are passed on as bounds.

Data set [1] deals with T1, GT198 (Homo sapiens, UniProt Q9P2W1).
T1 sequence (Q9P2W1 1-180): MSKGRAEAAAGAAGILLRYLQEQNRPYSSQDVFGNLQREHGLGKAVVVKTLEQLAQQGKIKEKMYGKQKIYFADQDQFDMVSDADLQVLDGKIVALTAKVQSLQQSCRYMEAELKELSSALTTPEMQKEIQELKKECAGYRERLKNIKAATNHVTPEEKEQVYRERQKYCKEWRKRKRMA
The data set can be described thus: In vitro DNA-binding assay of GT198 (biotinylated DNA, chemiluminescence). Set-up: Efficacy: dose or concentration left out as unconfirmed. The conditions noted are these: for Activity: NCI Approved Oncology Drug Set VII; for inhibition at 2 µM: read-out: Efficacy; for Efficacy: percent of inhibition of drugs.
Method: (§1) In order to measure GT198 activity in vitro for direct inhibition, a DNA-binding assay was developed in which recombinant GT198 proteins are coated on 96-well plates and assayed for the binding of biotin-labeled DNA in the presence of drug inhibitors. […] N-terminal His-tagged recombinant human GT198 protein without its C-terminus (aa 1–180) were expressed in E. coli BL21 (DE3) pLysS and purified through Ni-NTA-agarose (Qiagen) as previously described [33]. Proteins were eluted by 200 mM imidazole, desalted, concentrated using Amicon YM-10 spin columns, and stored at −80°C before use. Protein concentrations were determined using protein assay dye reagent concentrate solution (Bio-Rad) and 2 mg/ml bovine serum albumin (BSA) standard (Sigma).
(§2) A single-stranded 25-mer biotin-oligonucleotide (Biotin)-[sequence] was used in the assay because it is sufficient to bind one GT198 dimer. […] BSA alone was included as a control for background. No subtraction of background was needed due to very low background. Duplicated wells were used for each experimental point. Each experiment was repeated three times. The GT198-coated plates were blocked with 5% BSA in a solution containing PBS with 0.1% Triton X-100 (TPBS) for 1 h. The binding was carried out for 4 h to overnight at 4°C using 150 nM Biotin-DNA and serial diluted drugs (0.128, 0.64, 3.2, 16, 80, 400, 2,000, 10,000 nM) or herb extracts (0, 0.0384, 0.192, 0.96, 4.8, 24, 120, 600 ng/μl) in the binding buffer (20 mM TrisHCl, pH 7.5, 50 mM NaCl, 75 mM KCl, 0.5 mM MgCl2, 0.05% Triton X-100, 10% glycerol, 1 mM dithiothreitol). After binding, the plates were washed three times with TPBS solution for total 45 min. The plates were then incubated with streptavidin-conjugated HRP (Roche Molecular Biochemicals, #1089153) at 1 U/ml in TPBS for 1 h at 4°C and further washed three times with TPBS for total 30 min. […] Reading of plates was repeated three times within 45 min, and usually the second reading yielded the most consistent results. The finished plates were stained with Bio-Rad protein assay dye reagent to evaluate the bound GT198 protein on the plates.
(§3) The IC50 values were calculated through Kaleidagraph software (Synergy Software) using nonlinear regression sigmoidal dose-response curve fit. The equation for calculation is y = m1 + (m2 – m1)/[1 + (x /m3)^m4], where m1 is the minimum, m2 is the maximum, m3 is the IC50 value calculated by Kaleidagraph, and m4 is the slope at midpoint of the curve. The analysis of Vmax and Km in competitive binding assays were carried out in double-reciprocal plots, using means of four high-concentration data points, omitting points at lower concentrations with reciprocal values off-scale. […] Double-reciprocal plots reveal competitive binding as constant Vmax with increased Km in the presence of drugs or allosteric binding with reduced Vmax and constant Km in the presence of drugs.

The target in data set [2] is T1, GT198. In words: biochemical.
Method: as §1, §2, §3
The target in data set [3] is T1, GT198. Set-up: this study used a C-terminal truncated version of GT198 (aa 1–180) to ensure high sensitivity of the assay; His tag (N); made in house; host or cells: E. coli BL21 (DE3) pLysS; method as in doi:10.1101/675579. Conditions: separate study ref 45; cited from earlier work.
In data set [4] the target is T2, GT198 (Hop2), C-terminally truncated (human, UniProt Q9P2W1 1-180, del181-217).
T2 sequence: T1 sequence (Q9P2W1 1-180)
In words: plate binding assay (immobilized protein, streptavidin-HRP chemiluminescence); EC50; no drug; 20 mM Tris-HCl pH 7.5, 50 mM NaCl, 75 mM KCl, 0.5 mM MgCl2, 0.05% Triton X-100, 10% glycerol, 1 mM DTT; 4 C, 4 h to overnight; 400 ng/well GT198 plus 5 ug BSA. Conditions: protein: recombinant; tags: N-terminal His; chain copies: 2; label: biotin.

The mark [5] stands for this setting: Table 1, drugs not measured with IC50 are shown as active or inactive.
Setting [6] is: IC50, figures 2, 3, 150 nM DNA, sigmoidal curve fit, ND = not detectable.

Turning to `NCC(=O)CCC(=O)O` [Aminolevulinic acid], at GT198 [1], the “GT198 inhibition (in words)” value is on record as “positive inhibitors”. Besides, at GT198 [1] (Supplementary Table 1), the Activity result was “+”. Besides, the “Efficacy (active or inactive)” value on GT198 [1] (setting [5]) is on record as “Active”.

With `CO[C@H]1C(=O)[C@]2(C)[C@@H](OC)C[C@H]3OC[C@@]3(OC(C)=O)[C@H]2[C@H](OC(=O)c2ccccc2)[C@]2(O)C[C@H](OC(=O)[C@H](O)[C@@H](NC(=O)OC(C)(C)C)c3ccccc3)C(C)=C1C2(C)C` [Cabazitaxel], at GT198 [1] (setting [5]), the “Efficacy (active or inactive)” value is “Inactive”.

As to `CC[C@@]1(O)C(=O)OCc2c1cc1n(c2=O)Cc2cc3ccccc3nc2-1` [Camptothecin], 2060 nM corresponded to half-maximal inhibition against GT198 [2] (IC50). At GT198 [1], the “GT198 inhibition (in words)” value is “very poor affinities or fail to inhibit GT198” and the inhibition at 2 µM worked out at 30%.

Consider `N.N.O=C([O-])C1(C(=O)[O-])CCC1.[Pt+2]` [Carboplatin], for which, at GT198 [1], the “GT198 inhibition (in words)” value is “does not inhibit GT198”. Besides, on GT198 [1] (Supplementary Table 1), the IC50 is greater than 2000 nM and the Efficacy is recorded as 0%. In addition, the “Efficacy (active or inactive)” value at GT198 [1] (setting [5]) is listed as “Inactive”.

In the case of `CC(C)C[C@H](NC(=O)[C@H](CCc1ccccc1)NC(=O)CN1CCOCC1)C(=O)N[C@@H](Cc1ccccc1)C(=O)N[C@@H](CC(C)C)C(=O)[C@@]1(C)CO1` [Carfilzomib], the “GT198 inhibition (in words)” value on GT198 [1] is “positive inhibitors”. The “Efficacy (active or inactive)” value at GT198 [1] (setting [5]) is reported as “Active”.

Turning to `CC1=C(O)C(=O)C=C2C1=CC=C1[C@@]2(C)CC[C@@]2(C)[C@@H]3C[C@](C)(C(=O)O)CC[C@]3(C)CC[C@]12C` [Celastrol], at GT198 [1], the “GT198 inhibition (in words)” value is “positive” and the inhibition at 2 µM was determined as 30%. The IC50 at GT198 [1] (IC50) turned out to be 350 nM.

`N.N.[Cl][Pt][Cl]` [Cisplatin]: the “Efficacy (active or inactive)” value on GT198 [1] (setting [5]) is on record as “Inactive”.

`Cc1c2oc3c(C)ccc(C(=O)N[C@@H]4C(=O)N[C@H](C(C)C)C(=O)N5CCC[C@H]5C(=O)N(C)CC(=O)N(C)[C@@H](C(C)C)C(=O)O[C@@H]4C)c3nc-2c(C(=O)N[C@@H]2C(=O)N[C@H](C(C)C)C(=O)N3CCC[C@H]3C(=O)N(C)CC(=O)N(C)[C@@H](C(C)C)C(=O)O[C@@H]2C)c(N)c1=O` [Dactinomycin] (I: T[dV]P[Sar][NMeV] / II: T[dV]P[Sar][NMeV]; ester I:1-I:C, II:1-II:C; linker I:N-II:N via Actinocin(9to1)): at GT198 [1], the “Efficacy (active or inactive)” value was “Active” and the “GT198 inhibition (in words)” value is recorded as “positive inhibitors”.

As for `COc1cccc2c1C(=O)c1c(O)c3c(c(O)c1C2=O)C[C@@](O)(C(C)=O)C[C@@H]3O[C@H]1C[C@H](N)[C@H](O)[C@H](C)O1` [Daunorubicin], the IC50 against GT198 [2] worked out at 149 nM; on GT198 [1] (setting [6]), 150 nM. Further, the inhibition at 2 µM at GT198 [1] came to 48%.

For `CC(=O)O[C@@]12CO[C@@H]1C[C@H](O)[C@@]1(C)C(=O)[C@H](O)C3=C(C)[C@@H](OC(=O)[C@H](O)[C@@H](NC(=O)OC(C)(C)C)c4ccccc4)C[C@@](O)([C@@H](OC(=O)c4ccccc4)[C@H]21)C3(C)C` [Docetaxel], on GT198 [1], the “GT198 inhibition (in words)” value is “GT198 inhibitors”. Also, the “Efficacy (active or inactive)” value on GT198 [1] (setting [5]) is “Active”.

On to `COc1cccc2c1C(=O)c1c(O)c3c(c(O)c1C2=O)C[C@@](O)(C(=O)CO)C[C@@H]3O[C@H]1C[C@H](N)[C@@H](O)[C@H](C)O1` [Epirubicin], for which, on GT198 [1] (IC50), the IC50 was 750 nM and 749 nM.

Molecule `COc1cc([C@@H]2c3cc4c(cc3[C@@H](O[C@@H]3O[C@@H]5CO[C@@H](C)O[C@H]5[C@H](O)[C@H]3O)[C@H]3COC(=O)[C@H]23)OCO4)cc(OC)c1O` [Etoposide] yielded a half-maximal inhibitory concentration (IC50) against GT198 [2] of 24 nM. Further, at GT198 [1], the “GT198 inhibition (in words)” value is “GT198 inhibitors” and the inhibition at 2 µM worked out at 42%. Moreover, the half-inhibitory concentration (IC50) on GT198 [1] (setting [6]) was 24.2 nM.

With `CC(=O)[C@]1(O)Cc2c(O)c3c(c(O)c2[C@@H](O[C@H]2C[C@H](N)[C@H](O)[C@H](C)O2)C1)C(=O)c1ccccc1C3=O` [Idarubicin], the IC50 against GT198 [2] and at GT198 [1] (setting [6]) was 362 nM throughout. On GT198 [1], the inhibition at 2 µM came out at 56%.

At GT198 [2], `CCc1c2c(nc3ccc(OC(=O)N4CCC(N5CCCCC5)CC4)cc13)-c1cc3c(c(=O)n1C2)COC(=O)[C@]3(O)CC` [Irinotecan] registered an IC50 greater than 2000 nM. Besides, at GT198 [1], the “GT198 inhibition (in words)” value is on record as “very poor affinities or fail to inhibit GT198” and the inhibition at 2 µM worked out at 10%.

Regarding `CN(Cc1cnc2nc(N)nc(N)c2n1)c1ccc(C(=O)N[C@@H](CCC(=O)O)C(=O)O)cc1` [Methotrexate], the “GT198 inhibition (in words)” value at GT198 [1] was “negatives”.

With `O=C1c2c(O)ccc(O)c2C(=O)c2c(NCCNCCO)ccc(NCCNCCO)c21` [Mitoxantrone], 187 nM corresponded to half-maximal inhibition on GT198 [2] (IC50). On GT198 [1], the “GT198 inhibition (in words)” value is “almost complete inhibition” and the inhibition at 2 µM was 90%. For the same molecule, the IC50 at GT198 [1] (setting [6]) is 187 nM. Also, at GT198 [1] (Supplementary Table 1), the Activity result is reported as “+” and the Efficacy is reported as 90%.

For the molecule `CC(=O)O[C@H]1C(=O)[C@@]2(C)[C@H]([C@H](OC(=O)c3ccccc3)[C@]3(O)C[C@H](OC(=O)[C@H](O)[C@@H](NC(=O)c4ccccc4)c4ccccc4)C(C)=C1C3(C)C)[C@]1(OC(C)=O)CO[C@@H]1C[C@@H]2O` [Paclitaxel], on GT198 [2], the half-inhibitory concentration (IC50) turned out to be 5 nM. At GT198 [1], the “GT198 inhibition (in words)” value was “GT198 inhibitors” and the inhibition at 2 µM stood at 32%. In addition, the Mode of inhibition result on GT198 [3] was “allosteric inhibitor or noncompetitive inhibitor”.

In the case of `CO[C@H]1C[C@@H]2CC[C@@H](C)[C@@](O)(O2)C(=O)C(=O)N2CCCC[C@H]2C(=O)O[C@H]([C@H](C)C[C@@H]2CC[C@@H](O)[C@H](OC)C2)CC(=O)[C@H](C)/C=C(\C)[C@@H](O)[C@@H](OC)C(=O)[C@H](C)C[C@H](C)/C=C/C=C/C=C/1C` [Sirolimus], the “GT198 inhibition (in words)” value at GT198 [1] was “positive inhibitors”. Moreover, at GT198 [1] (setting [5]), the “Efficacy (active or inactive)” value was “Active”.

Take `CCN(CC)CCNC(=O)c1c(C)[nH]c(/C=C2\C(=O)Nc3ccc(F)cc32)c1C` [Sunitinib]: the “GT198 inhibition (in words)” value on GT198 [1] is recorded as “positive inhibitors”. Further, the Activity result on GT198 [1] (Supplementary Table 1) was “+”. Also, on GT198 [1] (setting [5]), the “Efficacy (active or inactive)” value is given as “Active”.

For `COc1cc([C@@H]2c3cc4c(cc3[C@@H](O[C@@H]3O[C@@H]5CO[C@@H](c6cccs6)O[C@H]5[C@H](O)[C@H]3O)[C@H]3COC(=O)[C@H]23)OCO4)cc(OC)c1O` [Teniposide], at GT198 [1], the “GT198 inhibition (in words)” value is “GT198 inhibitors”. In addition, the “Efficacy (active or inactive)” value at GT198 [1] (setting [5]) is reported as “Active”.

At GT198 [2], `CC[C@@]1(O)C(=O)OCc2c1cc1n(c2=O)Cc2cc3c(CN(C)C)c(O)ccc3nc2-1` [Topotecan] gave a concentration for half-maximal inhibition (IC50) greater than 2000 nM. Further, on GT198 [1], the “GT198 inhibition (in words)” value is reported as “very poor affinities or fail to inhibit GT198” and the inhibition at 2 µM worked out at 4%. For the same molecule, the Efficacy at GT198 [1] (Supplementary Table 1) is 4%.

For `O=c1[nH]c(=O)n([C@H]2C[C@H](O)[C@@H](CO)O2)cc1C(F)(F)F` [Trifluridine], the “GT198 inhibition (in words)” value on GT198 [1] is “positive inhibitors”. Further, the Activity result on GT198 [1] (Supplementary Table 1) was “+”. Moreover, the “Efficacy (active or inactive)” value on GT198 [1] (setting [5]) is “Active”.

With `CCCCC(=O)OCC(=O)[C@]1(O)Cc2c(O)c3c(c(O)c2[C@@H](O[C@H]2C[C@H](NC(=O)C(F)(F)F)[C@H](O)[C@H](C)O2)C1)C(=O)c1c(OC)cccc1C3=O` [Valrubicin], the IC50 on GT198 [2] and at GT198 [1] (setting [6]) was 973 nM each time. Moreover, on GT198 [1], the inhibition at 2 µM was 26%.

Consider `CC[C@]1(O)C[C@H]2CN(CCc3c([nH]c4ccccc34)[C@@](C(=O)OC)(c3cc4c(cc3OC)N(C=O)[C@H]3[C@@](O)(C(=O)OC)[C@H](OC(C)=O)[C@]5(CC)C=CCN6CC[C@]43[C@@H]65)C2)C1` [Vincristine], for which the “GT198 inhibition (in words)” value at GT198 [1] is “negatives”. Further, at GT198 [1] (setting [5]), the “Efficacy (active or inactive)” value was “Inactive”.

For CCTGGGGTTGCTGAGGTCCTGGCAG (ssDNA, biotin before the first printed base (5')) [biotin 25-mer ssDNA], in data set [4], the “apparent K (half saturation)” value amounted to 43 nM.
